Experimental data reported in ChEMBL document CHEMBL1139715, “Synthesis of 3,6-bis[H-Tyr/H-Dmt-NH(CH2)m,n]-2(1H)pyrazinone derivatives: function of alkyl chain length on opioid activity” (Bioorg Med Chem Lett, 2006).

Key:
Mu-type opioid receptor [1] = molecular target: Mu-type opioid receptor (Rattus norvegicus, UniProt P33535); test: Displacement of [3H]DAMGO from mu opioid receptor in rat synaptosomes P2 fraction; format: subcellular, Brain
[2] = molecular target: Delta-type opioid receptor (Rattus norvegicus, UniProt P33533); test: Displacement of [3H]deltorphin II from delta opioid receptor in rat synaptosomes P2 fraction; format: subcellular, Brain
Chain of Delta-type opioid receptor (Rattus norvegicus, UniProt P33533) (P33533 whole entry): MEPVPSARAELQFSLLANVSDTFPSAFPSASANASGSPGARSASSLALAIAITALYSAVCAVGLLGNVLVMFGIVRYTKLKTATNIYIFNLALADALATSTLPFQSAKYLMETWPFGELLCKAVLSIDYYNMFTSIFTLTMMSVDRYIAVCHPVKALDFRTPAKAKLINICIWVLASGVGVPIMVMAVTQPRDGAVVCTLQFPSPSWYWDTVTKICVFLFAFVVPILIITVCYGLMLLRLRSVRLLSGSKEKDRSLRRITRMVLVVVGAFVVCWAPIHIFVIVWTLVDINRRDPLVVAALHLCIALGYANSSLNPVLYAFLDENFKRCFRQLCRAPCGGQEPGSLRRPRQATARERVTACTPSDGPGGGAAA

[3] = molecular target: Opioid receptors; mu & delta (Rattus norvegicus) (UniProt P33533+P33535); test: Selectivity for rat mu opioid receptor over rat delta opioid receptor; format: protein assay
Chain of Opioid receptors; mu & delta (Rattus norvegicus) (P33533 whole entry, looked up): as the sequence (P33533 whole entry) above
Chain of Opioid receptors; mu & delta (Rattus norvegicus) (P33535 whole entry, looked up): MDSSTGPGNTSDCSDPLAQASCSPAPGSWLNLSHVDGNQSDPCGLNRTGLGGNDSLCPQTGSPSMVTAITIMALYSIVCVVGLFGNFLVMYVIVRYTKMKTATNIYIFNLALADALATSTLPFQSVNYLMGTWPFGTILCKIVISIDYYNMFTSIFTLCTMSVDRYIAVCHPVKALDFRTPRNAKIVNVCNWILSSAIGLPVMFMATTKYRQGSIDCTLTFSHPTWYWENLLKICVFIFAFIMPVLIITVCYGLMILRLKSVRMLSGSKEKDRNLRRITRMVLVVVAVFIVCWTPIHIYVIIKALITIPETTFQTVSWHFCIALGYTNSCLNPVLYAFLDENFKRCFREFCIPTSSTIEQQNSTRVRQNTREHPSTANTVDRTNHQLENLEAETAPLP

Mu-type opioid receptor [4] = molecular target: Mu-type opioid receptor (Cavia porcellus, UniProt P97266); test: Activity at mu opioid receptor by guinea pig ileum assay; format: functional, tissue-based
Chain of Mu-type opioid receptor (Cavia porcellus, UniProt P97266) (P97266 whole entry): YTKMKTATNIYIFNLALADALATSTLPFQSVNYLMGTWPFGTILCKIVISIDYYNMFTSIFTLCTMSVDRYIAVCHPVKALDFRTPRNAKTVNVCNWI

[5] = molecular target: Delta-type opioid receptor (Mus musculus) (UniProt P32300); test: (§1) Activity at delta opioid receptor assessed as inhibition of muscle contraction in mouse vas deferens assay; format: functional, tissue-based; settings: for inhibition: concentration not given here; for Activity: filed as partial agonist
Chain of Delta-type opioid receptor (Mus musculus) (P32300 whole entry): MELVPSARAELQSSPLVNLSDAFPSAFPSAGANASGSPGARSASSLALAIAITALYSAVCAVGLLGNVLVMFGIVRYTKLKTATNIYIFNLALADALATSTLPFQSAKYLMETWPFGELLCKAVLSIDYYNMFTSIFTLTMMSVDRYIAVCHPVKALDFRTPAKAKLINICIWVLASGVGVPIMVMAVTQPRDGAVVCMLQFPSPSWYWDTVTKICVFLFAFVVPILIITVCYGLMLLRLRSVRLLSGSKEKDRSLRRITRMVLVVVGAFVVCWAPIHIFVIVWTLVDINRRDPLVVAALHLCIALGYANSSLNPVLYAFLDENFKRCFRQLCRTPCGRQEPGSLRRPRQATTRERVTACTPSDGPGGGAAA

[6] = molecular target: Delta-type opioid receptor (Mus musculus, UniProt P32300); test: as §1; format: functional, tissue-based
Chain of Delta-type opioid receptor (Mus musculus, UniProt P32300) (P32300 whole entry): as above

Chain of Mu-type opioid receptor (Rattus norvegicus, UniProt P33535) (P33535 whole entry): as the sequence (P33535 whole entry, looked up) above

| Compound | Ki (Mu-type opioid receptor [1]) | Ki [2] | Ratio Ki [3] | IC50 (Mu-type opioid receptor [4]) | inhibition [5] | Activity [5] | IC50 [6] |
| --- | --- | --- | --- | --- | --- | --- | --- |
| Cc1nc(CCCNC(=O)[C@@H](N)Cc2ccc(O)cc2)c(=O)[nH]c1CCCCNC(=O)[C@@H](N)Cc1ccc(O)cc1 | 27.4 nM | 2770 nM | 65 | – | – | – | – |
| Cc1cc(O)cc(C)c1C[C@H](N)C(=O)NCCCCc1[nH]c(=O)c(CCCNC(=O)[C@@H](N)Cc2c(C)cc(O)cc2C)nc1C | 0.051 nM | 18.8 nM | 369 | 4.93 nM | 44% | Partial agonist | > 10000 nM |
| Cc1cc(O)cc(C)c1C[C@H](N)C(=O)NCCCCc1nc(C)c(CCCNC(=O)[C@@H](N)Cc2c(C)cc(O)cc2C)[nH]c1=O | 0.021 nM | 31.9 nM | 1520 | 1.79 nM | 60% | Partial agonist | 25.8 nM |
| Cc1nc(CCCCNC(=O)[C@@H](N)Cc2ccc(O)cc2)c(=O)[nH]c1CCCNC(=O)[C@@H](N)Cc1ccc(O)cc1 | 7.58 nM | 924 nM | 220 | – | – | – | – |
